Here are results for 15 compounds from ChEMBL document CHEMBL3272310, “Effect of chain length on critical micelle formation and protein binding of quaternary ammonium compounds” (J Med Chem, 1976).

Series [1] in a line: Critical micelle concentration of the compound. The series is classed as ADME.
For the next series, the target named is Albumin (Bos taurus, UniProt P02769). In words: Binding affinity to bovine serum albumin. As to conditions: cattle, isolated protein.
The nature of series [2]: 1-Octanol-water partition coefficient, log P of the compound. The series is classed as physicochemical.

Albumin, sequence (P02769 whole entry): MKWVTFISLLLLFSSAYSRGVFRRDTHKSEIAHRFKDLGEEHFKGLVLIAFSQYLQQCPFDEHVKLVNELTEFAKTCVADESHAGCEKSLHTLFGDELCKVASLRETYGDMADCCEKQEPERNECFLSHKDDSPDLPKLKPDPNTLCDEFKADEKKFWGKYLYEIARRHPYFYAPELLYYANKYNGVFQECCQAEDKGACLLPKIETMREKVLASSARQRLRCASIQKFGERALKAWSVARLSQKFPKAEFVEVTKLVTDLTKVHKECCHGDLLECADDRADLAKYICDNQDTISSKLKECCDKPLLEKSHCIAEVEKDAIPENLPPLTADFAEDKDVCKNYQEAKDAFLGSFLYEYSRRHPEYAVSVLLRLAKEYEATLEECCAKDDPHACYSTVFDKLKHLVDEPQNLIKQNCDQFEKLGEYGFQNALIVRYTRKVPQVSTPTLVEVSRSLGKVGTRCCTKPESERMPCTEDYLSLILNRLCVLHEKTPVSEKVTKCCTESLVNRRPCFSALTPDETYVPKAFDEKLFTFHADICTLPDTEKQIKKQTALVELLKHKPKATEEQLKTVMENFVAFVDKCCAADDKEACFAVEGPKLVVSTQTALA

For the compound `CCCCCCCCCCCCCCCCCC[N+](C)(C)Cc1ccccc1.[Cl-]`, in series [1], the log1/CMC came to 4.48.
`CCCCCCCCCC[N+](C)(C)Cc1ccccc1.[Cl-]`: the “log K” value on Albumin was 5. In addition, the log1/CMC in series [1] stood at 1.47.
As to `CCCCCCCC[N+](C)(C)Cc1ccccc1.[Cl-]`, the “log K” value on Albumin stood at 4.82. For the same compound, the log1/CMC in series [1] is 0.67.
As for `CCCCCCCCCCC[N+](C)(C)Cc1ccccc1.[Cl-]`, the “log K” value at Albumin is on record as 4.55. The compound also came in with a log1/CMC in series [1] of 1.85.
For `CCCCCCCCCCCCCCC[N+](C)(C)Cc1ccccc1.[Cl-]`, in that order: 3.57 and 3.22.
For `CCCCCCCCCCCCCCCCC[N+](C)(C)Cc1ccccc1.[Cl-]`, in that order: 3.55 and 4.
In series [1], `CCCCCCCCCCCCCCCCCCC[N+](C)(C)Cc1ccccc1.[Cl-]` came in with a log1/CMC of 4.74.
As usually defined, the logP is a log measure of how a compound divides between an organic and an aqueous phase. Higher therefore signals higher lipophilicity. As to `CC[N+](C)(C)Cc1ccccc1`, the logP in series [2] was -3.38.
Still for that read-out and setting: the value for `CCCC[N+](C)(C)Cc1ccccc1` was -1.85; that for `CCCCCC[N+](C)(C)Cc1ccccc1` was -1.53; that for `CCCCCCCC[N+](C)(C)Cc1ccccc1` was -0.29.
As to `CCCCCCCCCCCCC[N+](C)(C)Cc1ccccc1.[Cl-]` [BENZALKONIUM CHLORIDE], the “log K” value at Albumin worked out at 3.85. Further, in series [1], the log1/CMC came to 2.57.
Regarding `CCCCCCCCCCCC[N+](C)(C)Cc1ccccc1.[Cl-]` [BENZODODECINIUM CHLORIDE], the “log K” value on Albumin was found to be 4.26. The same compound showed a log1/CMC in series [1] of 2.16.
Regarding `CCCCCCCCCCCCCCCC[N+](C)(C)Cc1ccccc1.[Cl-]` [CETALKONIUM CHLORIDE], the “log K” value on Albumin came to 3.49. The compound further showed a log1/CMC in series [1] of 3.62.
For `CCCCCCCCCCCCCC[N+](C)(C)Cc1ccccc1.[Cl-]` [MIRISTALKONIUM CHLORIDE], in that order: 3.51 and 2.92.
